The record followed here is patent publication US20220324835A1 (Nurix Therapeutics, Inc., priority 2018, published 2022).

A value given as a limit tells only on which side of the number the result lay.

The subject of assay [1] is human T-cells with allogenic immature dendritic cells. Put plainly: Allogenic mixed lymphocyte reaction (MLR), T-cell proliferation. The assay is classed as cell-based. Particulars: 120 h, 5 days, baseline T-cells without Cbl-b inhibitor, read-out: Proliferation, fold change over baseline. In a few lines:
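CFSE-labelled primary human T-cells, preincubated with Cbl-b inhibitor, stimulated by allogenic immature dendritic cells derived from monocytes with GM-CSF (30 ng/mL) and IL-4 (20 ng/mL) over 7 days. Proliferation by flow cytometry, expressed as fold over inhibitor-free baseline; >2-fold counted positive.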

Assay [2] deals with T-cells. Put plainly: In vivo activity: CD25 expression on CD4+ or CD8+ T-cells of mice stimulated with anti-CD3 antibody. The following applies: 2 μg anti-CD3 antibody, 24 hours. The method, boiled down:
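C57BL/6 or BALB/c mice dosed with inhibitor (IV, IP, SC or PO, e.g. BID or TID), then stimulated with 2 μg anti-CD3 antibody. Plasma IL-2, IFNγ, TNFα at 8 h and CD25 on CD4+/CD8+ T-cells by flow cytometry at 24 h; fold change over vehicle plus anti-CD3, binned A–E.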

In assay [3] the test system is T-cell. Put plainly: CD25 cell surface staining on T-cells stimulated with anti-CD3 antibody alone (Biological Example 2). The following applies: primary human total T-cells, baseline = anti-CD3/anti-CD28 stimulated cells without inhibitor, read-out: CD25 staining, Anti-CD3 stimulation, fold change over baseline; for fold induction at 1 µM: 1 μM compound; for fold induction at 8 µM: 8 μM compound. The assay is classed as cell-based.

Assay [4] relates to T-cell. The experiment in a line: IL-2 secretion from T-cells stimulated with anti-CD3 antibody alone (Biological Example 2). The assay is classed as cell-based. Particulars: primary human total T-cells, read-out: IL-2 secretion, Anti-CD3 stimulation, fold change over baseline; for fold induction at 1 µM: 1 μM compound; for fold induction at 8 µM: 8 μM compound.

Consider `C[C@H](Sc1nncn1C)c1cccc(NC(=O)c2cc(C(=O)N3CC[C@H](O)C3)ccn2)c1` [Compound 140, 4-[[(3S)-3-hydroxypyrrolidin-1-yl]carbonyl]-N-[3-[(1S)-1-[(4-methyl-4H-1,2,4-triazol-3-yl)sulfanyl]ethyl]phenyl]pyridine-2-carboxamide], for which, in assay [1], the fold induction at 3 µM is below 2 and the fold induction at 10 µM is below 2.

On to `C[C@H](Cc1nncn1C)c1cccc(NC(=O)c2ccnc(C(F)(F)F)n2)c1` [Compound 187, (R)-N-(3-(1-(4-methyl-4H-1,2,4-triazol-3-yl)propan-2-yl)phenyl)-2-(trifluoromethyl)pyrimidine-4-carboxamide], for which, in assay [2] (90 mpk IP BID), the “CD4+ T-cell % CD25+” value is on record as “C (C indicates 1.51-2.00)” and the “CD8+ T-cell % CD25+” value is reported as “D (D indicates 1.00-1.50)”.

Regarding `C[C@H](Cc1nncn1C)c1cccc(NC(=O)c2cccc(CCO)n2)c1` [Compound 202, 6-(2-hydroxyethyl)-N-[3-[(2R)-1-(4-methyl-4H-1,2,4-triazol-3-yl)propan-2-yl]phenyl]pyridine-2-carboxamide], in assay [1], the fold induction at 3 µM is below 2 and the fold induction at 10 µM was below 2.

For `C[C@H](Cc1nncn1C)c1cccc(N2Cc3c(ccnc3C3CC3)C2=O)c1` [Compound 257, 4-cyclopropyl-2-[3-[(1R)-1-methyl-2-(4-methyl-1,2,4-triazol-3-yl)ethyl]phenyl]-3H-pyrrolo[3,4-c]pyridin-1-one], in assay [1], the fold induction at 3 µM was below 2 and the fold induction at 10 µM was below 2.

In the case of `Cn1cnnc1[C@@H]1C[C@@H]1c1cccc(N2Cc3c(cccc3C(F)(F)F)C2=O)c1` [Compound 282, 2-(3-((1S,2R)-2-(4-methyl-4H-1,2,4-triazol-3-yl)cyclopropyl)phenyl)-4-(trifluoromethyl)isoindolin-1-one], in assay [1], the fold induction at 3 µM was below 2 and the fold induction at 10 µM was below 2. Further, in assay [2] (90 mpk PO BID), the “CD4+ T-cell % CD25+” value is recorded as “D (D indicates 1.00-1.50)” and the “CD8+ T-cell % CD25+” value was “D (D indicates 1.00-1.50)”. Further, in assay [2] (135 mpk PO BID), the “CD4+ T-cell % CD25+” value is listed as “C (C indicates 1.51-2.00)” and the “CD8+ T-cell % CD25+” value is “D (D indicates 1.00-1.50)”. In assay [2] (180 mpk PO BID), the “CD4+ T-cell % CD25+” value is listed as “B (B indicates 2.01-2.50)” and the “CD8+ T-cell % CD25+” value was “D (D indicates 1.00-1.50)”.

Turning to `C[C@H](Cc1nncn1C)c1ccnc(NC(=O)c2cccc(C(F)(F)F)n2)c1` [Compound 302, (R)-N-(4-(1-(4-methyl-4H-1,2,4-triazol-3-yl)propan-2-yl)pyridin-2-yl)-6-(trifluoromethyl)picolinamide], in assay [1], the fold induction at 3 µM is below 2 and the fold induction at 10 µM is below 2.

Turning to `C[C@H](Cc1nncn1C)c1cccc(NC(=O)c2nc(C(F)(F)F)c[nH]2)c1` [Compound 326, (R)-N-(3-(1-(4-methyl-4H-1,2,4-triazol-3-yl)propan-2-yl)phenyl)-4-(trifluoromethyl)-1H-imidazole-2-carboxamide], in assay [1], the fold induction at 3 µM was below 2 and the fold induction at 10 µM was below 2.

For the molecule `Cn1cnnc1[C@@H]1C[C@@H]1c1cccc(N2Cc3c(ccnc3C(F)(F)F)C2=O)c1` [Compound 369, 2-{3-[(1S,2R)-2-(4-methyl-4H-1,2,4-triazol-3-yl)cyclopropyl]phenyl}-4-(trifluoromethyl)-1H,2H,3H-pyrrolo[3,4-c]pyridin-1-one], in assay [3], the fold induction at 1 µM lay within 0.601 to 0.8 and the fold induction at 8 µM was in the range of 0.801 to 1. Also, in assay [4], the fold induction at 1 µM lay in the range of 0.051 to 0.1 and the fold induction at 8 µM lay in the range of 0.101 to 0.15. For the same molecule, in assay [1], the fold induction at 3 µM is below 2 and the fold induction at 10 µM is below 2.

Turning to `Cc1cc2c(c(C3CC3)n1)CN(c1cccc([C@H](C)Cc3nncn3C)c1)C2=O` [Compound 372, 4-cyclopropyl-6-methyl-2-{3-[(2R)-1-(4-methyl-4H-1,2,4-triazol-3-yl)propan-2-yl]phenyl}-1H,2H,3H-pyrrolo[3,4-c]pyridin-1-one], in assay [3], the fold induction at 1 µM lay in the range of 0.601 to 0.8 and the fold induction at 8 µM fell in the range of 0.801 to 1. Also, in assay [4], the fold induction at 1 µM was 0.051 to 0.1 and the fold induction at 8 µM lay within 0.101 to 0.15. Further, in assay [1], the fold induction at 3 µM is below 2 and the fold induction at 10 µM is below 2.

`CNCc1ccc(C(=O)Nc2cccc([C@H](C)Cc3nncn3C)c2)nc1C1CC1` [Compound 376, (R)-6-cyclopropyl-N-(3-(1-(4-methyl-4H-1,2,4-triazol-3-yl)propan-2-yl)phenyl)-5-((methylamino)methyl)picolinamide]: in assay [3], the fold induction at 1 µM lay within 0.801 to 1 and the fold induction at 8 µM was above 1. In addition, in assay [4], the fold induction at 1 µM lay within 0.101 to 0.15 and the fold induction at 8 µM was above 0.201. Besides, in assay [1], the fold induction at 3 µM is below 2 and the fold induction at 10 µM is below 2.
